In ChEMBL document CHEMBL3870335, “Bioactivity of topologically confined gramicidin A dimers” (Bioorg Med Chem, 2017):
pIC50: −log10 of the molar value. Values after ≈ are worked out from the molar mass of the structure shown. Where a SMILES comes first, the peptide text is derived from it. [ ]: non-standard residue; d: D form. The star is where a group is joined. NHCH2CH2OH = OCCN*; For = O=C*

How the values were obtained:
Escherichia coli = assay: Antimicrobial activity against Escherichia coli ATCC 25922 after 16 to 20 hrs by broth microdilution method; assay type: functional
Klebsiella pneumoniae = assay: Antimicrobial activity against Klebsiella pneumoniae ATCC 13883 after 16 to 20 hrs by broth microdilution method; assay type: functional
Proteus mirabilis = assay: Antimicrobial activity against Proteus mirabilis ATCC 7002 after 16 to 20 hrs by broth microdilution method; assay type: functional
Pseudomonas aeruginosa = assay: Antimicrobial activity against Pseudomonas aeruginosa ATCC 27853 after 16 to 20 hrs by broth microdilution method; assay type: functional
Streptococcus pneumoniae = assay: Antimicrobial activity against Streptococcus pneumoniae serotype 19A after 16 to 20 hrs by broth microdilution method; assay type: functional
Enterococcus faecalis = assay: Antimicrobial activity against Enterococcus faecalis ATCC 29212 after 16 to 20 hrs by broth microdilution method; assay type: functional
Enterococcus faecium = assay: Antimicrobial activity against Enterococcus faecium DSMZ 20477 after 16 to 20 hrs by broth microdilution method; assay type: functional
[1] = test system: Staphylococcus epidermidis; assay: Antimicrobial activity against Staphylococcus epidermidis PP62A after 16 to 20 hrs by broth microdilution method; assay type: functional
Staphylococcus aureus = assay: Antimicrobial activity against methicillin-resistant Staphylococcus aureus ATCC 43300 after 16 to 20 hrs by broth microdilution method; assay type: functional
[2] = Induction of bulk conductivity in soybean asolectin planar lipid bilayers assessed as residual conductance of black lipid bilayer at 500 nM at pH 8
[3] = Induction of bulk conductivity in soybean asolectin planar lipid bilayers assessed as residual conductance of black lipid bilayer at 1 nM at pH 8
[4] = Induction of bulk conductivity in soybean asolectin planar lipid bilayers assessed as residual conductance of black lipid bilayer at 250 nM at pH 8
[5] = Hemolytic activity against human erythrocytes at 20 to 140 uM after 30 mins; assay type: ADME, cell-based; details: erythrocyte, 0.5 h
Plasmodium falciparum [6] = assay: Antimalarial activity against chloroquine-sensitive Plasmodium falciparum 3D7 after 72 hrs by NBT based LDH assay; assay type: functional; details: 3D7, 72 h
Plasmodium falciparum [7] = assay: Antimalarial activity against chloroquine-resistant Plasmodium falciparum Dd2 after 72 hrs by NBT based LDH assay; assay type: functional; details: Dd2, 72 h
[8] = Induction of bulk conductivity in soybean asolectin planar lipid bilayers assessed as residual conductance of black lipid bilayer at 0.5 nM at pH 8

CC(C)C[C@@H](NC(=O)[C@H](C)NC(=O)CNC(=O)[C@@H](NC(=O)CCS)C(C)C)C(=O)N[C@@H](C)C(=O)N[C@@H](C(=O)N[C@H](C(=O)N[C@@H](C(=O)N[C@@H](Cc1c[nH]c2ccccc12)C(=O)N[C@H](CC(C)C)C(=O)N[C@@H](Cc1c[nH]c2ccccc12)C(=O)N[C@H](CC(C)C)C(=O)N[C@@H](Cc1c[nH]c2ccccc12)C(=O)N[C@H](CC(C)C)C(=O)N[C@@H](Cc1c[nH]c2ccccc12)C(=O)NCCS)C(C)C)C(C)C)C(C)C
MIC (Escherichia coli): > 64 µg/mL | MIC (Klebsiella pneumoniae): > 64 µg/mL | MIC (Proteus mirabilis): > 64 µg/mL | MIC (Pseudomonas aeruginosa): > 64 µg/mL | MIC (Streptococcus pneumoniae): > 64 µg/mL | MIC (Enterococcus faecalis): > 64 µg/mL | MIC (Enterococcus faecium): > 64 µg/mL | MIC [1]: > 64 µg/mL | MIC (Staphylococcus aureus): > 64 µg/mL | Activity [2]: 0.3 uS | Activity [3]: < 0.3 uS

CC(C)C[C@H]1NC(=O)[C@H](C)NC(=O)CNC(=O)[C@H](C(C)C)NC(=O)CCSSCCC(=O)N[C@@H](C(C)C)C(=O)NCC(=O)N[C@@H](C)C(=O)N[C@H](CC(C)C)C(=O)N[C@@H](C)C(=O)N[C@H](C(C)C)C(=O)N[C@@H](C(C)C)C(=O)N[C@H](C(C)C)C(=O)N[C@@H](Cc2c[nH]c3ccccc23)C(=O)N[C@H](CC(C)C)C(=O)N[C@@H](Cc2c[nH]c3ccccc23)C(=O)N[C@H](CC(C)C)C(=O)N[C@@H](Cc2c[nH]c3ccccc23)C(=O)N[C@H](CC(C)C)C(=O)N[C@@H](Cc2c[nH]c3ccccc23)C(=O)NCCSSCCNC(=O)[C@H](Cc2c[nH]c3ccccc23)NC(=O)[C@@H](CC(C)C)NC(=O)[C@H](Cc2c[nH]c3ccccc23)NC(=O)[C@@H](CC(C)C)NC(=O)[C@H](Cc2c[nH]c3ccccc23)NC(=O)[C@@H](CC(C)C)NC(=O)[C@H](Cc2c[nH]c3ccccc23)NC(=O)[C@@H](C(C)C)NC(=O)[C@H](C(C)C)NC(=O)[C@@H](C(C)C)NC(=O)[C@H](C)NC1=O
Activity [4]: < 0.3 uS

CC(C)C[C@@H](NC(=O)[C@H](C)NC(=O)CNC(=O)[C@@H](NC(=O)CCSSCCC(=O)N[C@H](C(=O)NCC(=O)N[C@@H](C)C(=O)N[C@H](CC(C)C)C(=O)N[C@@H](C)C(=O)N[C@@H](C(=O)N[C@H](C(=O)N[C@@H](C(=O)N[C@@H](Cc1c[nH]c2ccccc12)C(=O)N[C@H](CC(C)C)C(=O)N[C@@H](Cc1c[nH]c2ccccc12)C(=O)N[C@H](CC(C)C)C(=O)N[C@@H](Cc1c[nH]c2ccccc12)C(=O)N[C@H](CC(C)C)C(=O)N[C@@H](Cc1c[nH]c2ccccc12)C(=O)NCCO)C(C)C)C(C)C)C(C)C)C(C)C)C(C)C)C(=O)N[C@@H](C)C(=O)N[C@@H](C(=O)N[C@H](C(=O)N[C@@H](C(=O)N[C@@H](Cc1c[nH]c2ccccc12)C(=O)N[C@H](CC(C)C)C(=O)N[C@@H](Cc1c[nH]c2ccccc12)C(=O)N[C@H](CC(C)C)C(=O)N[C@@H](Cc1c[nH]c2ccccc12)C(=O)N[C@H](CC(C)C)C(=O)N[C@@H](Cc1c[nH]c2ccccc12)C(=O)NCCO)C(C)C)C(C)C)C(C)C
MIC (Escherichia coli): > 64 µg/mL | Activity [5]: Non-Toxic | pIC50 (Plasmodium falciparum [6]): 7.51 | pIC50 (Plasmodium falciparum [7]): 7.58 | Activity [8]: 0.4 uS | Activity [4]: 66 uS

CC(=O)N[C@H](C(=O)NCC(=O)N[C@@H](C)C(=O)N[C@H](CC(C)C)C(=O)N[C@@H](C)C(=O)N[C@@H](C(=O)N[C@H](C(=O)N[C@@H](C(=O)N[C@@H](Cc1c[nH]c2ccccc12)C(=O)N[C@H](CC(C)C)C(=O)N[C@@H](Cc1c[nH]c2ccccc12)C(=O)N[C@H](CC(C)C)C(=O)N[C@@H](Cc1c[nH]c2ccccc12)C(=O)N[C@H](CC(C)C)C(=O)N[C@@H](Cc1c[nH]c2ccccc12)C(=O)NCCS)C(C)C)C(C)C)C(C)C)C(C)C
MIC (Escherichia coli): > 64 µg/mL | MIC (Klebsiella pneumoniae): > 64 µg/mL | MIC (Proteus mirabilis): > 64 µg/mL | MIC (Pseudomonas aeruginosa): > 64 µg/mL | MIC (Streptococcus pneumoniae): 0.05 µg/mL (≈ 0.0261 µM) | MIC (Enterococcus faecalis): > 64 µg/mL | MIC (Enterococcus faecium): > 64 µg/mL | MIC [1]: > 64 µg/mL | pIC50 (Plasmodium falciparum [6]): 8.26 | pIC50 (Plasmodium falciparum [7]): 8.10 | MIC (Staphylococcus aureus): > 64 µg/mL | Activity [8]: 1.9 uS | Activity [2]: 93 uS

CC(C)C[C@@H](NC(=O)[C@H](C)NC(=O)CNC(=O)[C@@H](NC(=O)CCS)C(C)C)C(=O)N[C@@H](C)C(=O)N[C@@H](C(=O)N[C@H](C(=O)N[C@@H](C(=O)N[C@@H](Cc1c[nH]c2ccccc12)C(=O)N[C@H](CC(C)C)C(=O)N[C@@H](Cc1c[nH]c2ccccc12)C(=O)N[C@H](CC(C)C)C(=O)N[C@@H](Cc1c[nH]c2ccccc12)C(=O)N[C@H](CC(C)C)C(=O)N[C@@H](Cc1c[nH]c2ccccc12)C(=O)NCCO)C(C)C)C(C)C)C(C)C
MIC (Escherichia coli): > 64 µg/mL | Activity [2]: 42 uS | Activity [3]: 0.7 uS

CC(C)C[C@@H](NC(=O)[C@H](C)NC(=O)CNC(=O)[C@@H](NC=O)C(C)C)C(=O)N[C@@H](C)C(=O)N[C@@H](C(=O)N[C@H](C(=O)N[C@@H](C(=O)N[C@@H](Cc1c[nH]c2ccccc12)C(=O)N[C@H](CC(C)C)C(=O)N[C@@H](Cc1c[nH]c2ccccc12)C(=O)N[C@H](CC(C)C)C(=O)N[C@@H](Cc1c[nH]c2ccccc12)C(=O)N[C@H](CC(C)C)C(=O)N[C@@H](Cc1c[nH]c2ccccc12)C(=O)NCCO)C(C)C)C(C)C)C(C)C (For-VGA[dL]A[dV]V[dV]W[dL]W[dL]W[dL]W-NHCH2CH2OH)
MIC (Escherichia coli): > 64 µg/mL | Activity [5]: Toxic | MIC (Klebsiella pneumoniae): > 64 µg/mL | MIC (Proteus mirabilis): > 64 µg/mL | MIC (Pseudomonas aeruginosa): > 64 µg/mL | MIC (Streptococcus pneumoniae): 0.05 µg/mL (≈ 0.0266 µM) | MIC (Enterococcus faecalis): 1 µg/mL (≈ 0.531 µM) | MIC (Enterococcus faecium): 2 µg/mL (≈ 1.06 µM) | MIC [1]: 0.5 µg/mL (≈ 0.266 µM) | pIC50 (Plasmodium falciparum [6]): 10.30 | pIC50 (Plasmodium falciparum [7]): 10.85 | MIC (Staphylococcus aureus): 64 µg/mL (≈ 34 µM) | Activity [8]: > 50 uS

CC(C)C[C@@H](NC(=O)[C@H](C)NC(=O)CNC(=O)[C@@H](NC(=O)CCSSc1ccc([N+](=O)[O-])c(C(=O)O)c1)C(C)C)C(=O)N[C@@H](C)C(=O)N[C@@H](C(=O)N[C@H](C(=O)N[C@@H](C(=O)N[C@@H](Cc1c[nH]c2ccccc12)C(=O)N[C@H](CC(C)C)C(=O)N[C@@H](Cc1c[nH]c2ccccc12)C(=O)N[C@H](CC(C)C)C(=O)N[C@@H](Cc1c[nH]c2ccccc12)C(=O)N[C@H](CC(C)C)C(=O)N[C@@H](Cc1c[nH]c2ccccc12)C(=O)NCCO)C(C)C)C(C)C)C(C)C
MIC (Escherichia coli): > 64 µg/mL | MIC (Klebsiella pneumoniae): > 64 µg/mL | MIC (Proteus mirabilis): > 64 µg/mL | MIC (Pseudomonas aeruginosa): > 64 µg/mL | MIC (Streptococcus pneumoniae): > 64 µg/mL | MIC (Enterococcus faecalis): 1 µg/mL (≈ 0.467 µM) | MIC (Enterococcus faecium): 0.5 µg/mL (≈ 0.234 µM) | MIC [1]: 1 µg/mL (≈ 0.467 µM) | MIC (Staphylococcus aureus): > 64 µg/mL | Activity [2]: 115 uS | Activity [3]: 0.2 uS

CC(C)C[C@H]1NC(=O)[C@H](C)NC(=O)CNC(=O)[C@H](C(C)C)NC(=O)CCSSCCNC(=O)[C@H](Cc2c[nH]c3ccccc23)NC(=O)[C@@H](CC(C)C)NC(=O)[C@H](Cc2c[nH]c3ccccc23)NC(=O)[C@@H](CC(C)C)NC(=O)[C@H](Cc2c[nH]c3ccccc23)NC(=O)[C@@H](CC(C)C)NC(=O)[C@H](Cc2c[nH]c3ccccc23)NC(=O)[C@@H](C(C)C)NC(=O)[C@H](C(C)C)NC(=O)[C@@H](C(C)C)NC(=O)[C@H](C)NC(=O)[C@@H](CC(C)C)NC(=O)[C@H](C)NC(=O)CNC(=O)[C@H](C(C)C)NC(=O)CCSSCCNC(=O)[C@H](Cc2c[nH]c3ccccc23)NC(=O)[C@@H](CC(C)C)NC(=O)[C@H](Cc2c[nH]c3ccccc23)NC(=O)[C@@H](CC(C)C)NC(=O)[C@H](Cc2c[nH]c3ccccc23)NC(=O)[C@@H](CC(C)C)NC(=O)[C@H](Cc2c[nH]c3ccccc23)NC(=O)[C@@H](C(C)C)NC(=O)[C@H](C(C)C)NC(=O)[C@@H](C(C)C)NC(=O)[C@H](C)NC1=O
MIC (Escherichia coli): > 64 µg/mL | MIC (Klebsiella pneumoniae): > 64 µg/mL | MIC (Proteus mirabilis): > 64 µg/mL | MIC (Pseudomonas aeruginosa): > 64 µg/mL | MIC (Streptococcus pneumoniae): > 64 µg/mL | MIC (Enterococcus faecalis): > 64 µg/mL | MIC (Enterococcus faecium): > 64 µg/mL | MIC [1]: > 64 µg/mL | pIC50 (Plasmodium falciparum [6]): 8.54 | pIC50 (Plasmodium falciparum [7]): 8.57 | MIC (Staphylococcus aureus): > 64 µg/mL | Activity [2]: < 0.3 uS

CC[C@H]1OC(=O)[C@H](C)[C@@H](O[C@H]2C[C@@](C)(OC)[C@@H](O)[C@H](C)O2)[C@H](C)[C@@H](O[C@@H]2O[C@H](C)C[C@H](N(C)C)[C@H]2O)[C@](C)(O)C[C@@H](C)C(=O)[C@H](C)[C@@H](O)[C@]1(C)O [ERYTHROMYCIN]
MIC (Escherichia coli): > 32 µg/mL | MIC (Klebsiella pneumoniae): > 64 µg/mL | MIC (Proteus mirabilis): > 64 µg/mL | MIC (Pseudomonas aeruginosa): > 64 µg/mL | MIC (Streptococcus pneumoniae): > 64 µg/mL | MIC (Enterococcus faecalis): 1 µg/mL (≈ 1.36 µM) | MIC (Enterococcus faecium): 2 to 4 µg/mL (≈ 2.73 to 5.45 µM) | MIC [1]: > 64 µg/mL | MIC (Staphylococcus aureus): 0.5 µg/mL (≈ 0.681 µM)
